Data taken from BindingDB's records for doi:10.1016/j.bmcl.2013.06.023 (Northwest Agriculture & Forestry University, 2013).

Legend:
[1] = target: T1, G protein-activated inward rectifier potassium channel 1 (Homo sapiens, UniProt P48549); assay: Inhibition of GIRK1/2 (unknown origin)
T1 sequence (P48549 whole entry): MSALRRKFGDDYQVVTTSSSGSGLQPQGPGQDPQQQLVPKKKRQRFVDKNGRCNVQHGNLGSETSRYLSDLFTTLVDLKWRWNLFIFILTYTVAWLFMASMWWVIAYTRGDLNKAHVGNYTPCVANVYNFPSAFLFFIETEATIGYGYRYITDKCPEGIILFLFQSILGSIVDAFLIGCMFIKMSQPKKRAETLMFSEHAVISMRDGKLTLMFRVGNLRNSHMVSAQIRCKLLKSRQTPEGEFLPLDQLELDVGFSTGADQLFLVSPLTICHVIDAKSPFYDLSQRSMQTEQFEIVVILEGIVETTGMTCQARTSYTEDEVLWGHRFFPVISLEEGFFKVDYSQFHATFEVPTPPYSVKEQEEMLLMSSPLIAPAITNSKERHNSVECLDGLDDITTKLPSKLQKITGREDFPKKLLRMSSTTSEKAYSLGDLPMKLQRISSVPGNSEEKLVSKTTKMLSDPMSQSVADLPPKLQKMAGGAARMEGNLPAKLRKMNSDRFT

[2] = target: T2, G protein-activated inward rectifier potassium channel 4 (Homo sapiens, UniProt P48544); assay: Inhibition of GIRK1/4 (unknown origin)
T2 sequence (P48544 whole entry): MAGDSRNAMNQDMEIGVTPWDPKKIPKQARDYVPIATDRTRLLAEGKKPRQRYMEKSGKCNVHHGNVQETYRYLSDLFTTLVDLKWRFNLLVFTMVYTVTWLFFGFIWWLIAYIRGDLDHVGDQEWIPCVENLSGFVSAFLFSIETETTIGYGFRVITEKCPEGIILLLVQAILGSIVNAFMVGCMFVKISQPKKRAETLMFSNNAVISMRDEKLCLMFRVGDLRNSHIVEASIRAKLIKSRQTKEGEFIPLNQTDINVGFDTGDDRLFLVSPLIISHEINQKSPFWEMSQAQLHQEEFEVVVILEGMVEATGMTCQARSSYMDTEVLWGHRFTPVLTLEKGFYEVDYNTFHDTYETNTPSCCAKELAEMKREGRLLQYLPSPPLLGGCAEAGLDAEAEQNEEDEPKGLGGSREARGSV

SMILES	IC50 [1] [µM]	IC50 [2] [µM]
O=C(Nc1ccc(F)c(F)c1)Nc1cc(C(F)(F)F)nn1-c1ccccc1	30	30
O=C(Nc1ccc(F)c(F)c1)Nc1cc(C2CCC2)nn1-c1ccccc1	30	30
O=C(Nc1ccc(F)c(F)c1)Nc1cc(-c2ccccc2)nn1-c1ccccc1	30	30
